Results from US20150352111A1, “Therapeutic Indications of Kinase Inhibitors” (Pulmokine, Inc., priority 2013, published 2015).
Where “and” joins values, the source holds several entries; their conditions need not be identical. Equal values may be shown once.

What was measured:
PDGFR alpha receptor = biological target: T1, PDGFR alpha receptor (Homo sapiens, UniProt P16234); assay: Z-lyte in vitro kinase assay (Invitrogen Select Screen); type: biochemical; conditions: ATP Km
T1 construct: purchased Invitrogen (Select Screen service)

[1] = system: Human pulmonary artery smooth muscle cells; assay: PASMC proliferation assay (Cyquant NF); type: cell-based; conditions: PDGF BB 50 ng/ml, 24 hours, read-out: IC50, PDGF BB stimulated human PA SMC proliferation
Protocol: PASMC Proliferation Assay.
Human pulmonary artery smooth muscle cells were obtained from Cell Applications (San Diego, Calif.) and grown to 50% confluence in a 96 well format. The cells were switched to serum free media 24 hours prior to stimulation with PDGF BB 50 ng/ml and varying concentrations of PK10453. After 24 hours of treatment, a Cyquant NF Cell proliferation assay was performed (Invitrogen®), and the fluorescent signal was measured with a Cytofluor Plate reader. Data is based on an avg. of 8 replicates at each conc.

[2] = Pharmacokinetic study, IV vs inhalation, lung and plasma; type: in vivo, rat; conditions: for AUC: rat
Protocol: PK10453 was administered intravenously or by inhalation to animals, which were then euthanized at time 0, 10, 20, and 60 minutes (n=3 each time point). Blood samples were taken by cardiac puncture, and the lungs excised. The lungs were homogenized and PK10453 extracted with a 1:3 mixture of acetonitrile:methanol. Similarly, plasma was extracted with a 1:3 mixture of acetonitrile:methanol. Drug was assayed by LC MS/MS (PharmOptima Inc., Portage Mich.). First order exponential curves were fit to the data with Excel. The AUC was determined with the trapezoidal method of integration.
For the pharmacokinetic study, the concentration of PK10453 in lung when administered by inhalation was compared to the concentration achieved with IV administration. As described in Morén “Aerosols in medicine: principles, diagnosis, and therapy.” Amsterdam; New York: Elsevier. xx, 429 (1993) and Phalen et al., “Inhalation exposure methodology.” Environ Health Perspect 56:23-34 (1984)), it is possible to estimate the pharmacokinetic advantage of inhalation relative to intravenous administration, Rd, by comparing the areas under the curve (AUC) of a plot of the drug concentration as a function of time following respiratory and intravenous (IV) administration:
Rd=[(AUClung/AUCplasma)respiratory]/[(AUClung/AUCplasma)IV]

rat MCT+PN model of PAH = assay: Telemetry study of PA pressure in the rat MCT+PN model; type: in vivo
Protocol: Efficacy Study in the Rat MCT+PN Model.
Pneumonectomy and implantation of a TRM53P telemetry monitor in the pulmonary artery (Telemetry Research, New Zealand and ADInstruments, Colorado) was carried out in rats. Two weeks after MCT, PK10453 was administered three times daily for 1 week. Dosing was begun 2 weeks after MCT rather than 3 weeks, because in this more aggressive model the animals developed PAH more quickly and developed distress sooner than in MCT only treated animals (Pulmokine unpublished data). The two groups underwent 4 minute exposures of either the vehicle control or PK10453. Sampling of PA pressure was performed 5 minutes before each morning dose in ambulatory animals in room air (est. pressure 716 mm Hg based on elev. of animal facility).

PDGFR beta receptor = PDGFR beta receptor (Homo sapiens, UniProt P09619); assay: Z-lyte in vitro kinase assay (Invitrogen Select Screen); type: biochemical; conditions: ATP Km
Protocol: In Vitro Kinase Assay. A Z-lyte kinase assay was performed to determine the inhibition of PDGFRalpha and PDGFRbeta mediated phosphorylation by PK10453. Ten point titration curves were modeled to calculate the IC50 (Invitrogen Select Screen®).

T1 sequence (P16234 24-1089): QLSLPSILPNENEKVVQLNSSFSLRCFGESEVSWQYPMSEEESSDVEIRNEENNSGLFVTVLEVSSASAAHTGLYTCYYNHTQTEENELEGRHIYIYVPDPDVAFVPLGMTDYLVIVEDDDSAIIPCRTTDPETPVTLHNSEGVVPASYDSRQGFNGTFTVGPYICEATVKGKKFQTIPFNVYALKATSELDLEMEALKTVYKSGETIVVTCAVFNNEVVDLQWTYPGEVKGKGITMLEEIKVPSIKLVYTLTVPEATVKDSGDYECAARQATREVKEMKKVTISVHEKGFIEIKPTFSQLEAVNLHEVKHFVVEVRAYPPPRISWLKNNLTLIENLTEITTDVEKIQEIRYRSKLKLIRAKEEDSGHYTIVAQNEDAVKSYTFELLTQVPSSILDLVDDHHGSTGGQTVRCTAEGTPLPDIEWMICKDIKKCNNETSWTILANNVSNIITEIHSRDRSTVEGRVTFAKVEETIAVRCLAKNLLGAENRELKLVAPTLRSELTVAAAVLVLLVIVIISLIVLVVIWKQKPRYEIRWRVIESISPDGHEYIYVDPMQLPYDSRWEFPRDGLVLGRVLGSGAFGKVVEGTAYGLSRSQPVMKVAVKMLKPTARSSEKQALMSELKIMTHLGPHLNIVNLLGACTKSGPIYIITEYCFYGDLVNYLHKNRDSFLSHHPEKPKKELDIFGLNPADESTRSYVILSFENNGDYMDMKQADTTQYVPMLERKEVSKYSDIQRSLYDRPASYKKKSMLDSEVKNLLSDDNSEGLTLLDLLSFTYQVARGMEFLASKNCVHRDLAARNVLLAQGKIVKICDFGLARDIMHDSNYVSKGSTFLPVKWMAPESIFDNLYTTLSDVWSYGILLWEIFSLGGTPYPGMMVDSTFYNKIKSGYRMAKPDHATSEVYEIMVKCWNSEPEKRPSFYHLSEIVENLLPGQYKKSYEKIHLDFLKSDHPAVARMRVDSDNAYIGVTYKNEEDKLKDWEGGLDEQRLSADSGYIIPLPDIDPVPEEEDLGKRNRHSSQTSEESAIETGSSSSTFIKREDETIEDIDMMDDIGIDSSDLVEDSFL
PDGFR beta receptor, sequence (P09619 33-1106): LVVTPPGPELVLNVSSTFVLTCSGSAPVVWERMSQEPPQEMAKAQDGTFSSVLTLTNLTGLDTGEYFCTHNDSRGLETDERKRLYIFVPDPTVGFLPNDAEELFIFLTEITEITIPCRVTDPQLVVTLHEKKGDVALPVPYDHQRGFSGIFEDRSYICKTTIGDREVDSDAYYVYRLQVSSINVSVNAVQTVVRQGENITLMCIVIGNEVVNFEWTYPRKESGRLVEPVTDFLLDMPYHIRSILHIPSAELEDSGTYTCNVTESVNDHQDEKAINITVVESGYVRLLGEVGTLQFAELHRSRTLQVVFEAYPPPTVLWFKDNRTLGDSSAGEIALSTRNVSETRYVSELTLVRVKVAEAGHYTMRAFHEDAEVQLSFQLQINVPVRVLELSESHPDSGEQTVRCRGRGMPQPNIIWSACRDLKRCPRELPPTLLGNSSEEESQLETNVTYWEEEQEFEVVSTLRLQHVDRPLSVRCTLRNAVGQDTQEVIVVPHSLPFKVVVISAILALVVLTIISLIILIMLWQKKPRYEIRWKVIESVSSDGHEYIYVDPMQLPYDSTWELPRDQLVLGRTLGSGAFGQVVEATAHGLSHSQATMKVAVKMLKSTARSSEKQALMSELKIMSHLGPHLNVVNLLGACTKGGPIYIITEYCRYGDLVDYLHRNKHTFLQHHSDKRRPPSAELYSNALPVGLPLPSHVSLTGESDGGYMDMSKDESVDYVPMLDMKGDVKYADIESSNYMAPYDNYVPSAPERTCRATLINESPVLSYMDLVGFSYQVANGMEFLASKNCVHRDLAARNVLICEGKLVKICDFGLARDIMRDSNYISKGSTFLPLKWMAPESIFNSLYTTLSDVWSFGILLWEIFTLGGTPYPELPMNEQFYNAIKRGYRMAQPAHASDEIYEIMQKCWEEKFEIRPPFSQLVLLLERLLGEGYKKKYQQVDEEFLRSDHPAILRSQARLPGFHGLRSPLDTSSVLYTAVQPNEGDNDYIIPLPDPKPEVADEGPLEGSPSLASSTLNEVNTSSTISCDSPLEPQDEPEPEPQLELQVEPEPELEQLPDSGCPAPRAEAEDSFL

Compound: COc1cc(-c2cncc(N[C@@H](C)c3cccc(NC(=O)c4cncc(C)c4)c3)n2)ccc1O [PK10453, (S)—N-(3-(1-((6-(4-hydroxy-3-methoxyphenyl)pyrazin-2yl)amino)ethyl)phenyl)-5-methylnicotinamide]
- IC50 (PDGFR alpha receptor): 21 nM
- IC50 [1]: < 500 nM
- A of Y = AEXP(-bX) ([2]; Lung (INH)): 2498 ng/g lung
- b of Y = AEXP(-bX) ([2]; Lung (INH)): 0.03 min⁻¹
- A of Y = AEXP(-bX) ([2]; Lung (IV)): 440 ng/g lung
- b of Y = AEXP(-bX) ([2]; Lung (IV)): 0.06 min⁻¹
- A of Y = AEXP(-bX) ([2]; Plasma (INH)): 132.7 ng/g lung
- b of Y = AEXP(-bX) ([2]; Plasma (INH)): 0.07 min⁻¹
- A of Y = AEXP(-bX) ([2]; Plasma (IV)): 1260 ng/g lung
- b of Y = AEXP(-bX) ([2]; Plasma (IV)): 0.07 min⁻¹
- Rd, pharmacokinetic advantage of inhalation relative to IV ([2]; [(AUClung/AUCplasma)respiratory]/[(AUClung/AUCplasma)IV]): 44.6 fold and 45 fold and 44.58 fold
- AUC ([2]; inhaled, Plasma (INH)): 65.5 ng·h/mL
- AUC ([2]; Plasma (IV)): 617 ng·h/mL
- PA systolic pressure (rat MCT+PN model of PAH; 4 min exposure 3x/day, after five days of treatment): 47.3±3.0 mm Hg
- PA systolic pressure (rat MCT+PN model of PAH; 4 min exposure 3x/day, treatment day 8): 47.3±4.9 mm Hg
- PA systolic pressure (rat MCT+PN model of PAH; day 0 prior to start of treatment): 43.1±3.5 mm Hg
- IC50 (PDGFR beta receptor): 15 nM
